According to patent US20240352075A1, “PACAP1-23 ANALOG GLYCOPEPTIDES AND METHODS FOR PRODUCING AND USING THE SAME” (priority 2021, published 2024):
Several values for one entry are separate records, joined by “and”; a condition that tells them apart may be missing. Equal entries are not always repeated. Where a SMILES comes first, the peptide text is derived from it. [ ]: non-standard residue; d: D form. The star is where a group is joined. ξ: configuration not given here. X2 = OCC1OC(OC2C(CO)OC(*)C(O)C2O)C(O)C(O)C1O; X1 = OCC1OC(*)C(O)C(O)C1O; Nva = CCC[C@H](N)C(=O)O; ξS = NC(CO)C(=O)O

How the values were obtained:
Format in all cases: cell-based
Details in all cases: for Emax: CHO
VPAC2 = target: T1, VPAC2 (Homo sapiens, UniProt P41587); assay: cAMP accumulation assay in CHO cells stably expressing VPAC2
T1 construct: 3xHA (N)
T1 sequence (P41587 24-438): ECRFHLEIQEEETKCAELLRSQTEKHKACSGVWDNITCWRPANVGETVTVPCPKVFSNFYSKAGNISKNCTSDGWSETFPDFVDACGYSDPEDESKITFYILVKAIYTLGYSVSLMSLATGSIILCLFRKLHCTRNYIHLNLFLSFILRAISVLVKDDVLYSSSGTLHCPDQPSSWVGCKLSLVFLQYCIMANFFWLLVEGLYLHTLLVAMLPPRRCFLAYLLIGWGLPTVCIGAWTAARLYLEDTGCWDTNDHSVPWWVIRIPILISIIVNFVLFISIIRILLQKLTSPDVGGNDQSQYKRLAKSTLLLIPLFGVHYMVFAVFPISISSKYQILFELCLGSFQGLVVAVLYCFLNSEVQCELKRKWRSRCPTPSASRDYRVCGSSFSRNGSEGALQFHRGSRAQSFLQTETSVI

VPAC1 = target: T2, VPAC1 (Homo sapiens, UniProt P32241); assay: cAMP accumulation assay in CHO cells stably expressing VPAC1
T2 construct: 3xHA (N)
T2 sequence (P32241 31-457): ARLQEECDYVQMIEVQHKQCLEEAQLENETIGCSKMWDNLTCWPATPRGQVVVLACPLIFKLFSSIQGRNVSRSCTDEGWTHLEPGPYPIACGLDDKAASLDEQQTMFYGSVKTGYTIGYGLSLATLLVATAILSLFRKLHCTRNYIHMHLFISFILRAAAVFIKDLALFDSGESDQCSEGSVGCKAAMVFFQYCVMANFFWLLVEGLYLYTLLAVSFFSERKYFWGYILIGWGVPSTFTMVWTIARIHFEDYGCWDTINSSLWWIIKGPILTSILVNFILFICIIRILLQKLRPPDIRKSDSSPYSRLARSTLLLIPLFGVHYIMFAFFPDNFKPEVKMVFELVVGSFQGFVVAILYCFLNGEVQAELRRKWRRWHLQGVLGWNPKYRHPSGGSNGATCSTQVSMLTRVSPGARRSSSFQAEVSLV

PAC1 = target: T3, PAC1 (Homo sapiens, UniProt P41586); assay: cAMP accumulation assay in CHO cells stably expressing PAC1
T3 construct: 3xHA (N)
T3 sequence (P41586 21-468): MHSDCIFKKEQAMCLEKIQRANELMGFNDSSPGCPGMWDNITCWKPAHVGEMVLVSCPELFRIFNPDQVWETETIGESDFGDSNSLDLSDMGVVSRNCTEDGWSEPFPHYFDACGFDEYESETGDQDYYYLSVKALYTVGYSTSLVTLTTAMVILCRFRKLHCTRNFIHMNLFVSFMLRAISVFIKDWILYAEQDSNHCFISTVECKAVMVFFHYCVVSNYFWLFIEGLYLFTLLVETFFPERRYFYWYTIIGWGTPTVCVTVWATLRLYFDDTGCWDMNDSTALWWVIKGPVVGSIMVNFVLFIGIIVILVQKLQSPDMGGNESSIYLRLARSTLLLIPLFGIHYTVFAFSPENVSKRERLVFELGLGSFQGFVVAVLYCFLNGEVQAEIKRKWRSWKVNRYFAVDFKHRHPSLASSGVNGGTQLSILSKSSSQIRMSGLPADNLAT

[1] = Table 3, in vitro cAMP stimulation, NC = No Convergence (no activity)

| Emax (VPAC2) [%] | Emax (VPAC2; [1]) [%] | EC50 (VPAC2; Table 1, cAMP stimulation, CHO cells, NC not defined here (Table 3: No Convergence)) [nM] | EC50 (VPAC2; [1]) [nM] | Emax (VPAC1) | EC50 (VPAC1; Table 1, cAMP stimulation, CHO cells) [nM] | Emax (PAC1) [%] | EC50 (PAC1; Table 3, in vitro cAMP stimulation) [nM] | SMILES |
| --- | --- | --- | --- | --- | --- | --- | --- | --- |
| 111 | 91 | 571 | 571 | 42% and 94% | 5.2 | 198 | 2.2 | CCC[C@H](NC(=O)[C@H](CCC(N)=O)NC(=O)[C@H](CCCCN)NC(=O)[C@H](CCCNC(=N)N)NC(=O)[C@H](Cc1ccc(O)cc1)NC(=O)[C@H](CCCNC(=N)N)NC(=O)[C@H](CO)NC(=O)[C@H](Cc1ccc(O)cc1)NC(=O)[C@H](CO)NC(=O)[C@H](CC(=O)O)NC(=O)[C@@H](NC(=O)[C@H](Cc1ccccc1)NC(=O)[C@@H](NC(=O)CNC(=O)[C@H](CC(=O)O)NC(=O)[C@H](CO)NC(=O)[C@@H](N)Cc1c[nH]cn1)[C@@H](C)CC)[C@@H](C)O)C(=O)N[C@@H](C)C(=O)N[C@H](C(=O)N[C@@H](CCCCN)C(=O)N[C@@H](CCCCN)C(=O)N[C@@H](Cc1ccc(O)cc1)C(=O)N[C@@H](CC(C)C)C(=O)N[C@@H](CO)C(N)=O)C(C)C [CRA-DV-3022] (H-HSDGIFTDSYSRYRKQ[Nva]AVKKYLS-NH2) |
| – | 90 | – | – | 105% | – | 181 | – | CCC[C@H](NC(=O)[C@H](CCC(N)=O)NC(=O)[C@H](CCCCN)NC(=O)[C@H](CCCNC(=N)N)NC(=O)[C@H](Cc1ccc(O)cc1)NC(=O)[C@H](CCCNC(=N)N)NC(=O)[C@H](CO)NC(=O)[C@H](Cc1ccc(O)cc1)NC(=O)[C@H](CO)NC(=O)[C@H](CC(=O)O)NC(=O)[C@@H](NC(=O)[C@H](Cc1ccccc1)NC(=O)[C@@H](NC(=O)CNC(=O)[C@H](CC(=O)O)NC(=O)[C@H](CO)NC(=O)[C@@H](N)Cc1c[nH]cn1)[C@@H](C)CC)[C@@H](C)O)C(=O)N[C@@H](C)C(=O)N[C@H](C(=O)N[C@@H](CCCCN)C(=O)N[C@@H](CCCCN)C(=O)N[C@@H](Cc1ccc(O)cc1)C(=O)N[C@@H](CC(C)C)C(=O)NC(COC1OC(CO)C(O)C(O)C1O)C(N)=O)C(C)C (stereo partly shown) [CRA-DV-3023] (H-HSDGIFTDSYSRYRKQ[Nva]AVKKYL[ξS](X1)-NH2) |
| – | 130 | – | – | 127% | – | 152 | – | CCC[C@H](NC(=O)[C@H](CCC(N)=O)NC(=O)[C@H](CCCCN)NC(=O)[C@H](CCCNC(=N)N)NC(=O)[C@H](Cc1ccc(O)cc1)NC(=O)[C@H](CCCNC(=N)N)NC(=O)[C@H](CO)NC(=O)[C@H](Cc1ccc(O)cc1)NC(=O)[C@H](CO)NC(=O)[C@H](CC(=O)O)NC(=O)[C@@H](NC(=O)[C@H](Cc1ccccc1)NC(=O)[C@@H](NC(=O)CNC(=O)[C@H](CC(=O)O)NC(=O)[C@H](CO)NC(=O)[C@@H](N)Cc1c[nH]cn1)[C@@H](C)CC)[C@@H](C)O)C(=O)N[C@@H](C)C(=O)N[C@H](C(=O)N[C@@H](CCCCN)C(=O)N[C@@H](CCCCN)C(=O)N[C@@H](Cc1ccc(O)cc1)C(=O)N[C@@H](CC(C)C)C(=O)NC(COC1OC(CO)C(O)C(O)C1O)C(=O)NC(COC1OC(CO)C(O)C(O)C1O)C(N)=O)C(C)C (stereo partly shown) [CRA-DV-3024] (H-HSDGIFTDSYSRYRKQ[Nva]AVKKYL[ξS](X1)[ξS](X1)-NH2) |
| 168 | 118 | – | – | 91% | – | 174 | – | CCC[C@H](NC(=O)[C@H](CCC(N)=O)NC(=O)[C@H](CCCCN)NC(=O)[C@H](CCCNC(=N)N)NC(=O)[C@H](Cc1ccc(O)cc1)NC(=O)[C@H](CCCNC(=N)N)NC(=O)[C@H](CO)NC(=O)[C@H](Cc1ccc(O)cc1)NC(=O)[C@H](CO)NC(=O)[C@H](CC(=O)O)NC(=O)[C@@H](NC(=O)[C@H](Cc1ccccc1)NC(=O)[C@@H](NC(=O)CNC(=O)[C@H](CC(=O)O)NC(=O)[C@H](CO)NC(=O)[C@@H](N)Cc1c[nH]cn1)[C@@H](C)CC)[C@@H](C)O)C(=O)N[C@@H](C)C(=O)N[C@H](C(=O)N[C@@H](CCCCN)C(=O)N[C@@H](CCCCN)C(=O)N[C@@H](Cc1ccc(O)cc1)C(=O)N[C@@H](CC(C)C)C(=O)NC(COC1OC(CO)C(OC2OC(CO)C(O)C(O)C2O)C(O)C1O)C(N)=O)C(C)C (stereo partly shown) [CRA-TG-3025] (H-HSDGIFTDSYSRYRKQ[Nva]AVKKYL[ξS](X2)-NH2) |
| 190 | 115 | – | – | 95% | – | 181 | – | CCC[C@H](NC(=O)[C@H](CCC(N)=O)NC(=O)[C@H](CCCCN)NC(=O)[C@H](CCCNC(=N)N)NC(=O)[C@H](Cc1ccc(O)cc1)NC(=O)[C@H](CCCNC(=N)N)NC(=O)[C@H](CO)NC(=O)[C@H](Cc1ccc(O)cc1)NC(=O)[C@H](CO)NC(=O)[C@H](CC(=O)O)NC(=O)[C@@H](NC(=O)[C@H](Cc1ccccc1)NC(=O)[C@@H](NC(=O)[C@H](C)NC(=O)[C@H](CC(=O)O)NC(=O)[C@H](CO)NC(=O)[C@@H](N)Cc1c[nH]cn1)[C@@H](C)CC)[C@@H](C)O)C(=O)N[C@@H](C)C(=O)N[C@H](C(=O)N[C@@H](CCCCN)C(=O)N[C@@H](CCCCN)C(=O)N[C@@H](Cc1ccc(O)cc1)C(=O)N[C@@H](CC(C)C)C(=O)NC(COC1OC(CO)C(OC2OC(CO)C(O)C(O)C2O)C(O)C1O)C(N)=O)C(C)C (stereo partly shown) [CRA-TG-3026] (H-HSDAIFTDSYSRYRKQ[Nva]AVKKYL[ξS](X2)-NH2) |
